Key:
[1] = biological target: T1, Poly [ADP-ribose] polymerase 1 (Homo sapiens, UniProt P09874); test: Inhibition of PARP-1 (unknown origin) assessed as inhibition of biotinylated poly(ADP-ribose) onto histone proteins after 30 min by colorimetry
[2] = biological target: T1, Poly [ADP-ribose] polymerase 1; test: Inhibition of PARP-1 (unknown origin) expressed in CHO-K1 cells assessed as depletion of NAD(P)H after 2 hr by CCK-8 assay; format: cell-based
[3] = Solubility of the compound in water; format: physicochemical
[4] = Half life in Homo sapiens (human) liver microsomes at 1 uM by LC/MS/MS analysis; format: ADME
[5] = Half life in Rattus norvegicus Sprague-Dawley (rat) at 5 mg/kg, iv; format: ADME, organism-based; design: dose 5 mg/kg, route intravenous; conditions: in vivo
[6] = AUC (0 to infinity) in Rattus norvegicus Sprague-Dawley (rat) at 5 mg/kg, iv; format: ADME, organism-based; design: time infinity, dose 5 mg/kg, route intravenous; conditions: plasma
[7] = Clearance in Rattus norvegicus Sprague-Dawley (rat) at 5 mg/kg, iv; format: ADME, organism-based; design: dose 5 mg/kg, route intravenous; conditions: in vivo

T1 sequence (P09874 whole entry): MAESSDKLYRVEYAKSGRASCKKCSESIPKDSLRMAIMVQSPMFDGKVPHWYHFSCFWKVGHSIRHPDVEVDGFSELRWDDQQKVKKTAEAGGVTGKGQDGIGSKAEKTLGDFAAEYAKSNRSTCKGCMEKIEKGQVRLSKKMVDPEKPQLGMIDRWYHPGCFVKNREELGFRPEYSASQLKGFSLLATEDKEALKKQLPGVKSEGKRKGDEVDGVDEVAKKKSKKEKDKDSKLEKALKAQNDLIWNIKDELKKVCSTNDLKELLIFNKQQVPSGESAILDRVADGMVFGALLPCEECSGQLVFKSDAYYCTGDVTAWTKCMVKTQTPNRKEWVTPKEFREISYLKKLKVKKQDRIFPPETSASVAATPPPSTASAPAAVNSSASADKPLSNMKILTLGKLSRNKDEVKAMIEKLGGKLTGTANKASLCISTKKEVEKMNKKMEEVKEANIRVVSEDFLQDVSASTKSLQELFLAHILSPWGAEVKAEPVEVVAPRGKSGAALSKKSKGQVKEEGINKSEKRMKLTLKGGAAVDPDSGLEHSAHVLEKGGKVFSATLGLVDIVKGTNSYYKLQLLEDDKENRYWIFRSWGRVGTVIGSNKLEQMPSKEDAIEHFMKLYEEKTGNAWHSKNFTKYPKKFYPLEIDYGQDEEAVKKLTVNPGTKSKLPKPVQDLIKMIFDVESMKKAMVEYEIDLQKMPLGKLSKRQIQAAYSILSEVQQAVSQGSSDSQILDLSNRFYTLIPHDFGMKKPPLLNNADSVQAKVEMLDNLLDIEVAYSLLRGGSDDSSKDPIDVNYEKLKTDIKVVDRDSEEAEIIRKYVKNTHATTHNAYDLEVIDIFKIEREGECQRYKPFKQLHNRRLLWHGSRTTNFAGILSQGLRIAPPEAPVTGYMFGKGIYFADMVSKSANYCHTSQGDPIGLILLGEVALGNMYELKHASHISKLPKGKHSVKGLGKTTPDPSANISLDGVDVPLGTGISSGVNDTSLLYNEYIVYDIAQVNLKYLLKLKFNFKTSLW

Compound	IC50 [1] [nM]	ED50 [2] [nM]	other results
CCCCCN1CCN(C(=O)c2ccc3[nH]c(=O)c4c(c3c2)CCSC4)CC1	79	610	–
O=C(c1ccc2[nH]c(=O)c3c(c2c1)CCSC3)N1CCN(C2CCCCC2)CC1	68	320	–
O=C(O)c1ccc2[nH]c(=O)c3c(c2c1)CCSC3	78	–	–
O=C(c1ccc2[nH]c(=O)c3c(c2c1)CCSC3)N1CCCCC1	175	1260	–
O=C(c1ccc2[nH]c(=O)c3c(c2c1)CCSC3)N1CCN(Cc2ccccc2)CC1	187	2510	–
CN1CCN(C(=O)c2ccc3[nH]c(=O)c4c(c3c2)CCSC4)CC1	188	2530	–
O=C(NCCN1CCN(c2ccccc2)CC1)c1ccc2[nH]c(=O)c3c(c2c1)CCSC3	166	4020	–
O=C(c1ccc2[nH]c(=O)c3c(c2c1)CCSC3)N1CCN(C2CCCC2)CC1	47	550	half-life at 1 µM [4]: 14.5 min
O=C(NCCN1CCOCC1)c1ccc2[nH]c(=O)c3c(c2c1)CCSC3	60	> 30000	–
CCOC(=O)c1ccc2[nH]c(=O)c3c(c2c1)CCSC3	536	–	–
O=C(NCCN1CCCCC1)c1ccc2[nH]c(=O)c3c(c2c1)CCSC3	58	2810	–
O=C(c1ccc2[nH]c(=O)c3c(c2c1)CCSC3)N1CCN(C2CCCCCC2)CC1	67	500	–
O=C1CC2(CCCC2)CC(=O)N1CCCCN1CCN(c2ncccn2)CC1 [BUSPIRONE]	–	–	half-life at 1 µM [4]: 4 min
CCCCCCN1CCN(C(=O)c2ccc3[nH]c(=O)c4c(c3c2)CCSC4)CC1	94	2910	–
O=C(c1ccc2[nH]c(=O)c3c(c2c1)CCSC3)N1CCN(c2ccccc2)CC1	234	1290	–
CC(C)CCN1CCN(C(=O)c2ccc3[nH]c(=O)c4c(c3c2)CCSC4)CC1	65	840	half-life at 1 µM [4]: 15.9 min
O=C(c1ccc2[nH]c(=O)c3c(c2c1)CCSC3)N1CCN(CCCC(F)(F)F)CC1	134	2410	–

The remaining molecules from weak to strong by IC50 [1], led by results:

IC50 [1] [nM]	ED50 [2] [nM]	Compound	other results
47	2000	CCN1CCN(C(=O)c2ccc3[nH]c(=O)c4c(c3c2)CCSC4)CC1	–
45	540	CCCN1CCN(C(=O)c2ccc3[nH]c(=O)c4c(c3c2)CCSC4)CC1	solubility [3]: > 1000 µg/mL; half-life at 1 µM [4]: 41.7 min; half-life [5]: 84 min; AUC(0-inf) [6]: 1300 ng·h/mL; clearance [7]: 63.3 mL/min/kg
44	> 30000	O=C(NCCN1CCN(c2ccncc2)CC1)c1ccc2[nH]c(=O)c3c(c2c1)CCSC3	–
42	770	CCCCN1CCN(C(=O)c2ccc3[nH]c(=O)c4c(c3c2)CCSC4)CC1	–
40	460	CCCC(C)N1CCN(C(=O)c2ccc3[nH]c(=O)c4c(c3c2)CCSC4)CC1 (configuration not stated)	–
36	> 30000	O=C(NCCN1CCNCC1)c1ccc2[nH]c(=O)c3c(c2c1)CCSC3	–
30	> 30000	NCCCNC(=O)c1ccc2[nH]c(=O)c3c(c2c1)CCSC3	–
27	> 30000	NCCCCNC(=O)c1ccc2[nH]c(=O)c3c(c2c1)CCSC3	–
20	> 30000	O=C(c1ccc2[nH]c(=O)c3c(c2c1)CCSC3)N1CCN(c2ccncc2)CC1	–
19	2190	O=C(c1ccc2[nH]c(=O)c3c(c2c1)CCSC3)N1CCN(CCc2ccccc2)CC1	–
17	> 30000	NCCNC(=O)c1ccc2[nH]c(=O)c3c(c2c1)CCSC3	–
8	> 30000	O=C(c1ccc2[nH]c(=O)c3c(c2c1)CCSC3)N1CCNCC1	–
